Results from PubChem BioAssay AID256 (DTP/NCI, 2004).
Where “and” joins values, the source holds several entries; their conditions need not be identical. Equal values may be shown once. Toxic doses and inconclusive results are not listed. How the source made its calls: active means survival T/C of 150% or more; inactive means T/C below 125% in these data.

System: CD2F1 mice, L1210 leukemia ip, survival T/C
Experiment: NCI In Vivo Anticancer Drug Screen. Data for tumor model L1210 Leukemia (intraperitoneal) in CD2F1 (CDF1) mice
Details: higher = longer survival
Outline: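 Activity against a transplanted murine tumor was judged by comparing the compound group with a vehicle group. The outcome in the treated animals was divided by that in the controls.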

[1] = endpoint: mean survival time, dose: 100.0 mg/kg/injection, schedule: Q04DX002 (ip), vehicle: saline with Tween-80
[2] = endpoint: mean survival time, dose: 200.0 mg/kg/injection, schedule: Q04DX002 (ip), vehicle: saline with Tween-80
[3] = endpoint: mean survival time, dose: 400.0 mg/kg/injection, schedule: Q04DX002 (ip), vehicle: saline with Tween-80
[4] = endpoint: mean survival time, dose: 100.0 mg/kg/injection, schedule: Q01DX001 (ip), vehicle: saline with Tween-80
[5] = endpoint: mean survival time, dose: 200.0 mg/kg/injection, schedule: Q01DX001 (ip), vehicle: saline with Tween-80
[6] = endpoint: mean survival time, dose: 400.0 mg/kg/injection, schedule: Q01DX001 (ip), vehicle: saline with Tween-80
[7] = endpoint: mean survival time, dose: 400.0 mg/kg/injection, schedule: Q04DX003 (ip), vehicle: saline with Tween-80
[8] = endpoint: mean survival time, dose: 12.5 mg/kg/injection, schedule: Q01DX001 (ip), vehicle: saline
[9] = endpoint: mean survival time, dose: 25.0 mg/kg/injection, schedule: Q01DX001 (ip), vehicle: saline
[10] = endpoint: mean survival time, dose: 100.0 mg/kg/injection, schedule: Q01DX009 (ip), vehicle: saline with Tween-80
[11] = endpoint: mean survival time, dose: 100.0 mg/kg/injection, schedule: Q04DX003 (ip), vehicle: saline with Tween-80
[12] = endpoint: mean survival time, dose: 200.0 mg/kg/injection, schedule: Q01DX009 (ip), vehicle: saline with Tween-80
[13] = endpoint: mean survival time, dose: 200.0 mg/kg/injection, schedule: Q04DX003 (ip), vehicle: saline with Tween-80
[14] = endpoint: mean survival time, dose: 400.0 mg/kg/injection, schedule: Q01DX009 (ip), vehicle: saline with Tween-80

Measured: T/C

O=C1OC(/C=C/c2ccccc2)=NC/1=C\c1ccccc1Cl
inactive: [1] 103 % of control | [2] 103 % of control | [3] 91 % of control

O=C1C=C(O)C2C(=O)C1C1/C(=[N+](/[O-])O)C=C([N+](=O)[O-])C2C1[N+](=O)[O-] (stereo unspecified)
inactive: [1] 98 % of control | [2] 110 % of control | [3] 98 % of control

Cc1cc(C)c(NC(=O)CC#N)cc1C
inactive: endpoint: mean survival time, dose: 25.0 mg/kg/injection, schedule: Q04DX003 (ip), vehicle: saline with Tween-80 113 % of control and 93 % of control | endpoint: mean survival time, dose: 50.0 mg/kg/injection, schedule: Q04DX003 (ip), vehicle: saline with Tween-80 89 % of control and 103 % of control | [4] 100 % of control | [1] 90 % of control | [5] 102 % of control | [2] 102 % of control | [6] 102 % of control | [3] 105 % of control | [7] 93 % of control

CSc1nc(N)c2c(C(N)=O)cc(=O)n(C3OC(CO)C(O)C3O)c2n1 (stereo unspecified)
inactive: endpoint: mean survival time, dose: 12.5 mg/kg/injection, schedule: Q01DX005 (ip), vehicle: water 96 % of control | endpoint: mean survival time, dose: 25.0 mg/kg/injection, schedule: Q01DX005 (ip), vehicle: water 96 % of control | endpoint: mean survival time, dose: 50.0 mg/kg/injection, schedule: Q01DX005 (ip), vehicle: water 96 % of control | endpoint: mean survival time, dose: 100.0 mg/kg/injection, schedule: Q01DX005 (ip), vehicle: water 93 % of control | endpoint: mean survival time, dose: 200.0 mg/kg/injection, schedule: Q01DX005 (ip), vehicle: water 101 % of control

O=[N+]([O-])c1cccc2ccccc12
inactive: endpoint: mean survival time, dose: 100.0 mg/kg/injection, schedule: Q04DX003 (ip), vehicle: saline 101 % of control | endpoint: mean survival time, dose: 200.0 mg/kg/injection, schedule: Q04DX003 (ip), vehicle: saline 103 % of control | endpoint: mean survival time, dose: 400.0 mg/kg/injection, schedule: Q04DX003 (ip), vehicle: saline 86 % of control

O=CC(NC(=O)N(CCCl)N=O)C(O)C(O)C(O)CO (stereo unspecified)
active: endpoint: mean survival time, dose: 1.88 mg/kg/injection, schedule: Q01DX009 (ip), vehicle: citric acid 162 % of control | endpoint: mean survival time, dose: 3.75 mg/kg/injection, schedule: Q01DX009 (ip), vehicle: citric acid 182 % of control and 242 % of control | endpoint: mean survival time, dose: 3.75 mg/kg/injection, schedule: Q01DX009 (ip), vehicle: saline 186 % of control | endpoint: mean survival time, dose: 3.8 mg/kg/injection, schedule: Q01DX009 (ip), vehicle: water 406 % of control | endpoint: mean survival time, dose: 5.0 mg/kg/injection, schedule: Q04DX002 (ip), vehicle: saline 173 % of control and 250 % of control | endpoint: mean survival time, dose: 7.5 mg/kg/injection, schedule: Q01DX009 (ip), vehicle: saline 223 % of control | endpoint: mean survival time, dose: 7.5 mg/kg/injection, schedule: Q01DX009 (ip), vehicle: water 154 % of control | endpoint: mean survival time, dose: 8.0 mg/kg/injection, schedule: Q01DX001 (ip), vehicle: water 267 % of control | endpoint: mean survival time, dose: 10.0 mg/kg/injection, schedule: Q04DX002 (ip), vehicle: saline 276 % of control and 289 % of control | endpoint: mean survival time, dose: 11.0 mg/kg/injection, schedule: Q01DX001 (ip), vehicle: saline 151 % of control and 160 % of control | [8] 158 % of control | endpoint: mean survival time, dose: 16.0 mg/kg/injection, schedule: Q01DX001 (ip), vehicle: water 369 % of control | endpoint: mean survival time, dose: 20.0 mg/kg/injection, schedule: Q01DX001 (ip), vehicle: saline 688 % of control | endpoint: mean survival time, dose: 20.0 mg/kg/injection, schedule: Q04DX002 (ip), vehicle: saline 331 % of control and 335 % of control | [9] 535 % of control | endpoint: mean survival time, dose: 28.0 mg/kg/injection, schedule: Q01DX001 (ip), vehicle: saline 857 % of control | endpoint: mean survival time, dose: 32.0 mg/kg/injection, schedule: Q01DX001 (ip), vehicle: water 372 % of control | endpoint: mean survival time, dose: 36.0 mg/kg/injection, schedule: Q01DX001 (ip), vehicle: saline 603 % of control [middle of 4 runs] | endpoint: mean survival time, dose: 50.0 mg/kg/injection, schedule: Q01DX001 (ip), vehicle: saline 202 % of control | endpoint: mean survival time, dose: 54.0 mg/kg/injection, schedule: Q01DX001 (ip), vehicle: saline 300 % of control and 548 % of control | endpoint: median survival time, dose: 15.0 mg/kg/injection, schedule: Q01DX001 (ip), vehicle: saline 152 % of control | endpoint: median survival time, dose: 25.0 mg/kg/injection, schedule: Q01DX001 (ip), vehicle: saline 181 % of control | endpoint: median survival time, dose: 42.0 mg/kg/injection, schedule: Q01DX001 (ip), vehicle: saline 406 % of control
336 % of control [middle of 4 runs]: endpoint: mean survival time, dose: 16.0 mg/kg/injection, schedule: Q01DX001 (ip), vehicle: saline
inactive: endpoint: mean survival time, dose: 0.94 mg/kg/injection, schedule: Q01DX009 (ip), vehicle: citric acid 117 % of control | endpoint: mean survival time, dose: 7.0 mg/kg/injection, schedule: Q01DX001 (ip), vehicle: saline 115 % of control | endpoint: mean survival time, dose: 7.5 mg/kg/injection, schedule: Q01DX009 (ip), vehicle: citric acid 97 % of control | endpoint: mean survival time, dose: 15.0 mg/kg/injection, schedule: Q01DX009 (ip), vehicle: saline 120 % of control | endpoint: mean survival time, dose: 15.0 mg/kg/injection, schedule: Q01DX009 (ip), vehicle: water 93 % of control | endpoint: mean survival time, dose: 40.0 mg/kg/injection, schedule: Q04DX002 (ip), vehicle: saline 92 % of control and 101 % of control

O/N=C(/CN1CCOCC1)c1ccccc1
inactive: [10] 97 % of control | [11] 102 % of control | [12] 94 % of control | [13] 96 % of control | [14] 96 % of control | [7] 102 % of control

O=[N+]([O-])c1cccc(S(=O)(=O)Oc2ccc(-c3ccccc3)cc2)c1
inactive: [10] 87 % of control | [12] 91 % of control | [14] 89 % of control

N#Cc1nc(/C=C\c2ccc3c(c2)OCO3)cnc1N
inactive: endpoint: mean survival time, dose: 100.0 mg/kg/injection, schedule: Q01DX001 (ip), vehicle: Klucel (hydroxypropylcellulose) (HPC) 90 % of control | endpoint: mean survival time, dose: 200.0 mg/kg/injection, schedule: Q01DX001 (ip), vehicle: Klucel (hydroxypropylcellulose) (HPC) 90 % of control | endpoint: mean survival time, dose: 400.0 mg/kg/injection, schedule: Q01DX001 (ip), vehicle: Klucel (hydroxypropylcellulose) (HPC) 90 % of control

C=CCCC(Cc1ccccc1)C1=NC(C)(C)CC(C)O1 (stereo unspecified)
inactive: endpoint: mean survival time, dose: 6.25 mg/kg/injection, schedule: Q01DX001 (ip), vehicle: saline 102 % of control | [8] 96 % of control | [9] 97 % of control

NC(=O)N/N=C/c1ccccc1N
inactive: [11] 97 % of control | [13] 108 % of control | [7] 98 % of control

CCCc1c(C)[nH]c2ccc(C)cc12
inactive: endpoint: mean survival time, dose: 50.0 mg/kg/injection, schedule: Q01DX009 (ip), vehicle: saline 102 % of control | endpoint: mean survival time, dose: 100.0 mg/kg/injection, schedule: Q01DX009 (ip), vehicle: saline 104 % of control | [11] 101 % of control | [13] 86 % of control

COc1cc([N+](=O)[O-])ccc1NC(=O)Nc1nccs1
inactive: endpoint: mean survival time, dose: 50.0 mg/kg/injection, schedule: Q01DX009 (ip), vehicle: saline with Tween-80 96 % of control and 97 % of control | [4] 97 % of control | [1] 87 % of control | [11] 98 % of control | [5] 92 % of control | [12] 95 % of control and 100 % of control and 104 % of control | [2] 95 % of control | [13] 95 % of control | [6] 100 % of control | [14] 97 % of control | [3] 102 % of control | [7] 101 % of control

CCCCC1(C(C)CC(C)(C)C)NC(C)(C)CC(C)O1 (stereo unspecified)
inactive: endpoint: mean survival time, dose: 25.0 mg/kg/injection, schedule: Q04DX002 (ip), vehicle: saline 104 % of control | endpoint: mean survival time, dose: 50.0 mg/kg/injection, schedule: Q04DX002 (ip), vehicle: saline 101 % of control | endpoint: mean survival time, dose: 100.0 mg/kg/injection, schedule: Q04DX002 (ip), vehicle: saline 89 % of control | [11] 101 % of control

O[C@H](CN1CC1)[C@@H](O)CN1CC1
active: endpoint: mean survival time, dose: 0.25 mg/kg/injection, schedule: Q01DX007 (ip), vehicle: saline 150 % of control | endpoint: mean survival time, dose: 0.25 mg/kg/injection, schedule: Q01DX009 (ip), vehicle: saline 170 % of control and 177 % of control and 178 % of control | endpoint: mean survival time, dose: 0.5 mg/kg/injection, schedule: Q01DX007 (ip), vehicle: saline 192 % of control | endpoint: mean survival time, dose: 0.5 mg/kg/injection, schedule: Q01DX009 (ip), vehicle: saline 165 % of control and 197 % of control and 205 % of control | endpoint: mean survival time, dose: 0.5 mg/kg/injection, schedule: Q03DX003 (ip), vehicle: saline 166 % of control | endpoint: mean survival time, dose: 0.5 mg/kg/injection, schedule: Q04DX003 (ip), vehicle: saline 164 % of control | endpoint: mean survival time, dose: 1.0 mg/kg/injection, schedule: Q03DX003 (ip), vehicle: saline 202 % of control | endpoint: mean survival time, dose: 1.0 mg/kg/injection, schedule: Q04DX003 (ip), vehicle: saline 184 % of control
inactive: endpoint: mean survival time, dose: 1.0 mg/kg/injection, schedule: Q01DX007 (ip), vehicle: saline 94 % of control | endpoint: mean survival time, dose: 1.0 mg/kg/injection, schedule: Q01DX009 (ip), vehicle: saline 116 % of control and 95 % of control
